Assay results: patent US4666892A, “Method and composition for hepatitis treatment with pyrimidine nucleoside compounds” (Sloan-Kettering Memorial Cancer Center, priority 1986, dated 1987)
Converted amounts (≈) assume the structure as drawn. Read-outs that look alike come from different tables or passages of the source. Blank lines part the entries; values can stand above or below the compound they belong to.

Legend:
[1] = target: T1, HBV DNA polymerase (Hepatitis B virus genotype D subtype ayw, UniProt P03156); experiment: HBV endogenous DNA polymerase assay, inhibition by nucleoside triphosphate analogs; type: biochemical, hepatitis B virion (HBV); details: for ID50 relative to ID50 of FIACTP: times more than FIACTP; for Nature of inhibition (Lineweaver-Burk plots): versus dGTP (ACVTP), dCTP (FIACTP), dTTP (BVdUTP); for Relative efficiency as inhibitor of HBV DNA polymerase: excess of nucleotides (50 uM)
T1 construct: HBV particles containing DNA polymerase activity were purified from the serum of an immunosuppressed patient; from tissue; host or cells: virus particles purified from the serum of an HBsAg-positive immunosuppressed patient
T1 sequence (P03156 whole entry): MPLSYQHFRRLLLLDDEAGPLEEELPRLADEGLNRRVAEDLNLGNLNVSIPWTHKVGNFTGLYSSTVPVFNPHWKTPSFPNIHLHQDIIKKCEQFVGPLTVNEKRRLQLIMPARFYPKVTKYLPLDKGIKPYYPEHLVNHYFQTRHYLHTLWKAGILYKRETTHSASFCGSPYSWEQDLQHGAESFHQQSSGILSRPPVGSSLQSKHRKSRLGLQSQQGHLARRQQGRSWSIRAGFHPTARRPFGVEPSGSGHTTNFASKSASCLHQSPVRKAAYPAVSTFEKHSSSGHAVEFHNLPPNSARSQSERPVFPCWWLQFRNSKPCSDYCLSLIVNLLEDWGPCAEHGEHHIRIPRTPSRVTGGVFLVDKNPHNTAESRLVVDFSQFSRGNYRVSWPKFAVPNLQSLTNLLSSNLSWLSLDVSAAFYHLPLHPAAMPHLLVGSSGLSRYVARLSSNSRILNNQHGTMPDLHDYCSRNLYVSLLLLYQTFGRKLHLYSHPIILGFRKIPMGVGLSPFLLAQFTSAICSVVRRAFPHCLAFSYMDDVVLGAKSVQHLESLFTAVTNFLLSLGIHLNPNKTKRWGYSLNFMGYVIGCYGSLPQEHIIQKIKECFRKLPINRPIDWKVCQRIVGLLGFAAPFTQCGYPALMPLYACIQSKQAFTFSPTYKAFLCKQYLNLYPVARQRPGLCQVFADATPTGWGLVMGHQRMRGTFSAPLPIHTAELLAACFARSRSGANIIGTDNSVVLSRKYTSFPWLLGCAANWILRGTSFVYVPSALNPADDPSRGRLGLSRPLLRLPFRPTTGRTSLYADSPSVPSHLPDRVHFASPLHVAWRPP
From the text: (§1) HBV particles containing DNA polymerase activity were purified from the serum of an immunosuppressed patient, positive for HBsAg. WHV was obtained from a serum pool of five woodchucks (Marmota monax) chronic carriers of the virus. The woodchucks initially imported from Pennsylvania (Dutchland Lab. Pennsylvania, USA) belonged to a colony followed for over one year by serological tests (Hantz et al, J. Virol. Metho. 7, 45-55 (1983)).
(§2) Virus was purified by centrifugation on sucrose and isopycnic CsCl gradients. (Hantz et al submitted for publication).
(§3) DNA polymerase was assayed as described by Kaplan et al (J. Virol., 12, 995 (1973)) with minor modification. The assay was performed in a 50 ul reaction mixture containing 50 mM Tris-HCl pH=7,6,40 mM MgC12, 60 mM NH4 Cl, 100 uM each dATP, dCTP and dGTP, 0.2-0.7 uM [^3 H] dTTP (30 Ci/mmol), 10 mM 2-mercaptoethanol, 0.5% Nonidet P 40 and enzyme. The reaction was started by addition of the virus particles with 2-mercaptoethanol and Nonidet P 40. Incubation was at 37° C. for 1 h. Acid insoluble radioactive material was collected on a glass fiber filter (GF/C Whatman) Filters were washed 5 times with cold 5% trichloracetic acid containing 10 mM sodium pyrophosphate, then with 95% ethanol. Radioactivity of the dried filter was measured in a liquid scintillation counter.
(§4) The relative sensitivities of both enzymes to CVTP, FIACTP and BVdUTP were compared using an excess of nucleotides. For each inhibitor, the concentration of the corresponding radioactive triphosphate was maintained at 2 to 3 times the Km value while the remaining nucleotides were in great excess (50 uM).
(§5) Although the mode of action for the various compounds is known to be different, the nature of ACVTP, FIACTP and BVdUTP inhibition of viral DNA synthesis catalyzed by HBV and WHV DNA polymerases was examined by determining the extent of inhibition with increasing concentrations of the substrates. In assays with ACVTP, [^3 H] dGTP was the rate limiting substrate while the other three nucleotides were in excess. The same conditions were used with [^3 H] dCTP for FIACTP and [^3 H] dTTP for BVdUTP inhibition. […] Similar results were obtained for WHV DNA polymerase.

[2] = target: T1, HBV DNA polymerase; experiment: Time course of viral DNA synthesis with the analog as alternate substrate; type: biochemical, hepatitis B virion (HBV); details: for DNA synthesis when the natural triphosphate is substituted by the analog: ara-TTP for dTTP, ara-CTP for dCTP, ACVTP for dGTP; for Viral DNA syntheses with dTTP substituted by the analog: [3H] dATP labelled substrate
Procedure: as §3
The [^32 p] DNA product by the endogenous DNA polymerase reaction was analysed by agarose gel electrophoresis as described by Summers et al (Proc. Natl. Acad. Sci. U.S.A. 72, 4597-4601 (1975)). The reaction was made in 15 ul of the standard DNA polymerase mixture with 1 uM of [^32 p] dCTP (500 Ci/mmol) as labelled nucleotide.
After 2 h incubation at 37° C., the reaction was terminated by the addition of 20 ul of 10 mM Tris, 10 mM EDTA, 0, 1 mg per ml of proteinase K, 0, 1% (wt/vol) sodium dodecyl sulfate, followed by further incubation for 60 mn at 37° C. 5 ul of 5% (wt/vol) sucrose, 1% bromophenol blue was added, the entire mixture was heated for […] at 65° C., immediately colded at 4° C. and then analyzed by electrophoresis on a horizontal slab gel of 1% agarose. After electrophoresis, the gel was dried and developed by autoradiography.
To determine the effect of the three analogs on viral DNA synthesis, a time course experiment was performed with HBV DNA polymerase. [^3 ] dATP was used as the labelled substrate. […] The substitution of dTTP by BVdUTP permitted the viral DNA syntheses up to 46 percent of the control after 3 h of reaction. This value increased to 67 percent of the optimal activity after 4 h of reaction. […] The DNA synthesized with BVdUTP as alternate substrate was analyzed by agarose gel electrophoresis.

[3] = target: T2, WHV DNA polymerase (Woodchuck hepatitis B virus, UniProt P03160); experiment: WHV endogenous DNA polymerase assay, inhibition by nucleoside triphosphate analogs; type: biochemical; details: for ID50 relative to ID50 of FIACTP: times more than FIACTP; for Affinity of WHV DNA polymerase to the analog compared with HBV DNA polymerase: WHV versus HBV DNA polymerase
T2 construct: WHV was obtained from a serum pool of five woodchucks (Marmota monax) chronic carriers of the virus; from tissue; host or cells: virus particles purified from a serum pool of five chronically infected woodchucks (imported from Pennsylvania)
T2 sequence (P03160 whole entry): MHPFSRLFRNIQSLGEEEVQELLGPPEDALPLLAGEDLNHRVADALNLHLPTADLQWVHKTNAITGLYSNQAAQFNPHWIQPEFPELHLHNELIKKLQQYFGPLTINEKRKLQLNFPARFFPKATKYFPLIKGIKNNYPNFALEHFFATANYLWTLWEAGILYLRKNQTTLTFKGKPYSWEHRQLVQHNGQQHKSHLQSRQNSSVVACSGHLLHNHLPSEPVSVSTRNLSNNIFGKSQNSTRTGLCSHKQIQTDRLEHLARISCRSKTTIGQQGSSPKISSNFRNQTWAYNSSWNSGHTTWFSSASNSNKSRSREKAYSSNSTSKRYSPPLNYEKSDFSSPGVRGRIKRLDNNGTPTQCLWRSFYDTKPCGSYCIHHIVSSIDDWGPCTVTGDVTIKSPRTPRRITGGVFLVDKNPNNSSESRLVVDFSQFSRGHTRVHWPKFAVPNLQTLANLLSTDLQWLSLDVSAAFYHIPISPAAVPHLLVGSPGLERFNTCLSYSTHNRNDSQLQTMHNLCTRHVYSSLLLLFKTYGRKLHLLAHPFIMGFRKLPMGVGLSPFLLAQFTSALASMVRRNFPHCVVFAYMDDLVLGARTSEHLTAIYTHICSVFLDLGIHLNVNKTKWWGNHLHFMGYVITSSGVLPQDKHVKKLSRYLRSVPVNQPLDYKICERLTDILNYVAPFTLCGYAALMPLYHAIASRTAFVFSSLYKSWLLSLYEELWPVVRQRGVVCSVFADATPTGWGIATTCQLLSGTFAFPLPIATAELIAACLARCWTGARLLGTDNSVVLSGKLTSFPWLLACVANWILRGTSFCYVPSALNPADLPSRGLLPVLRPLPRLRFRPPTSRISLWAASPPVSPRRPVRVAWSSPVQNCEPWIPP
From the text: as §1, §2, §3, §4, §5

[4] = target: T1, HBV DNA polymerase; experiment: Time course of HBV DNA synthesis, normal substrate added after 120 min with analog; type: biochemical, hepatitis B virion (HBV); details: for HBV DNA synthesis after addition of the normal substrate at 120 min of reaction with the analog: ACVTP 5 uM then 100 um dGTP, ara-ATP then dATP, ara-CTP then dCTP
Procedure: as §3
The effect of ACVTP on HBV DNA synthesis was also studied in a time course experiment ^3 H] dTTP was the labelled substrate. The reaction was initiated without dGTP or with 5 um ACVTP instead of dGTP. […] After 120 min of reaction, 100 uM of dGTP was added. In the assay without dGTP only, the addition of dGTP increased DNA synthesis as expected.

[5] = test system: HBV replication; details: patients with chronic hepatitis B; Weller et al 1982, 1983; cited from earlier work
[6] = target: T2, WHV DNA polymerase; experiment: Analog as alternate substrate of WHV DNA polymerase; type: biochemical
[7] = Solubility in water; type: physicochemical
From the text: These compounds are soluble in water and therefore water or water based solutions are preferred as solvents for treating patients. The solubilities are as follows:
The solubility of these compounds can be increased by adding acid or base to the aqueous solvent.

[8] = water, at 28°, read-out: Solubility

SMILES: Nc1nc2c(ncn2COCCOP(=O)(O)OP(=O)(O)OP(=O)(O)O)c(=O)[nH]1 [ACVTP]
ID50 relative to ID50 of FIACTP ([1]; HBV DNA polymerase): 18 times | Nature of inhibition (Lineweaver-Burk plots) ([1]; HBV DNA polymerase): competitive | DNA synthesis when the natural triphosphate is substituted by the analog [2]: did not increase the polymerization process | ID50 relative to ID50 of FIACTP ([3]; WHV DNA polymerase): 18 times | Affinity of WHV DNA polymerase to the analog compared with HBV DNA polymerase [3]: lower affinity | Incorporation of [3H] dTMP with analog instead of dGTP ([4]; 5 um ACVTP instead of dGTP, first 120 min): no incorporation | HBV DNA synthesis when reaction is started with analog and dGTP together ([4]; ACVTP 5 uM and dGTP 100 uM from start): a significant DNA synthesis was observed | HBV DNA synthesis after addition of the normal substrate at 120 min of reaction with the analog [4]: no DNA synthesis was observed

SMILES: Nc1nc2c(ncn2COCCO)c(=O)[nH]1 [ACV]
In vivo inhibition of HBV replication [5]: inhibition of HBV replication

SMILES: O=c1[nH]c(=O)n([C@H]2C[C@H](O)[C@@H](COP(=O)(O)OP(=O)(O)OP(=O)(O)O)O2)cc1/C=C/Br [BVdUTP]
DNA synthesized with analog as alternate substrate (agarose gel electrophoresis) ([6]; WHV DNA): Only incomplete filling of the single stranded region | Efficiency as alternate substrate ([6]; WHV DNA polymerase): most efficient alternate substrate | ID50 relative to ID50 of FIACTP ([1]; HBV DNA polymerase): 5 times | Nature of inhibition (Lineweaver-Burk plots) ([1]; HBV DNA polymerase): competitive | DNA synthesized with analog as alternate substrate (agarose gel electrophoresis) ([2]; HBV DNA): Only incomplete filling of the single stranded region | Efficiency as alternate substrate ([2]; HBV DNA polymerase): most efficient alternate substrate | Viral DNA syntheses with dTTP substituted by the analog ([2]; after 3 h of reaction): 46% of the control | Viral DNA syntheses with dTTP substituted by the analog ([2]; after 4 h of reaction): 67% of the optimal activity | ID50 relative to ID50 of FIACTP ([3]; WHV DNA polymerase): 5 times | Affinity of WHV DNA polymerase to the analog compared with HBV DNA polymerase [3]: lower affinity

solubility ([7]; water with 1 eq hcl, aqueous solvent with about one molar equivalent of hydrochloric acid, read-out: Solubility with added acid): ~250 mg/mL | solubility ([7]; water, at 21°, read-out: Solubility): 7.2 mg/mL (≈ 19.4 mM)
SMILES: Nc1nc(=O)n([C@@H]2O[C@H](CO)[C@@H](O)[C@@H]2F)cc1I [FIAC, 2'-fluoro-2'-deoxy-arabinosyl-5-iodocytosine]

SMILES: Nc1nc(=O)n([C@@H]2O[C@H](COP(=O)(O)OP(=O)(O)OP(=O)(O)O)[C@@H](O)[C@@H]2F)cc1I [FIACTP]
IC50 ([1]; HBV DNA polymerase, radioactive triphosphate at 2 to 3 times Km, remaining nucleotides 50 uM, read-out: ID50 (concentration of triphosphate required to inhibit 50 percent of DNA polymerase)): 0.05 µM | Nature of inhibition (Lineweaver-Burk plots) ([1]; HBV DNA polymerase): competitive | Relative efficiency as inhibitor of HBV DNA polymerase [1]: most efficient inhibitor | Incorporation of [3H] dAMP with the analog instead of dCTP ([2]; after 3 h of reaction): about 10 % of the control | IC50 ([3]; WHV DNA polymerase, radioactive triphosphate at 2 to 3 times Km, remaining nucleotides 50 uM, read-out: ID50 (concentration of triphosphate required to inhibit 50 percent of DNA polymerase)): 0.05 µM | Affinity of WHV DNA polymerase to the analog compared with HBV DNA polymerase [3]: lower affinity

Solubility with added base ([7]; aqueous solvent with one equivalent of sodium hydroxide (sodium salt)): increased many fold | solubility [7, 8]: 4 mg/mL (≈ 10.8 mM)
SMILES: O=c1[nH]c(=O)n([C@@H]2O[C@H](CO)[C@@H](O)[C@@H]2F)cc1I [FIAU, 2'-fluoro-2'-deoxy-arabinosyl-5-iodouracil]

solubility ([7]; water, at 24°, read-out: Solubility): 66 mg/mL (≈ 254 mM) | solubility [7, 8]: 81 mg/mL (≈ 311 mM)
SMILES: Cc1cn([C@@H]2O[C@H](CO)[C@@H](O)[C@@H]2F)c(=O)[nH]c1=O [FMAU, 2'-fluoro-2'-deoxy-arabinosyl-5-methyluracil]

SMILES: Nc1ncnc2c1ncn2[C@@H]1O[C@H](COP(=O)(O)OP(=O)(O)OP(=O)(O)O)[C@@H](O)[C@@H]1O [ara-ATP]
HBV DNA synthesis after addition of the normal substrate at 120 min of reaction with the analog [4]: increased the HBV DNA synthesis

SMILES: Nc1ccn([C@@H]2O[C@H](COP(=O)(O)OP(=O)(O)OP(=O)(O)O)[C@@H](O)[C@@H]2O)c(=O)n1 [ara-CTP]
Relative efficiency as inhibitor of HBV DNA polymerase [1]: least efficient | DNA synthesis when the natural triphosphate is substituted by the analog [2]: no significant incorporation | HBV DNA synthesis after addition of the normal substrate at 120 min of reaction with the analog [4]: increased the HBV DNA synthesis

SMILES: Cc1cn([C@@H]2O[C@H](COP(=O)(O)OP(=O)(O)OP(=O)(O)O)[C@@H](O)[C@@H]2O)c(=O)[nH]c1=O [ara-TTP]
DNA synthesis when the natural triphosphate is substituted by the analog [2]: no significant DNA synthesis
